From ChEMBL document CHEMBL1212923, “Synthesis and in vivo evaluation of phenethylpiperazine amides: selective 5-hydroxytryptamine(2A) receptor antagonists for the treatment of insomnia” (J Med Chem, 2010)
Active and inactive are the calls of the source. The rule behind the calls is not given here.

Key:
[1] = biological target: T1, 5-hydroxytryptamine receptor 2C (Homo sapiens, UniProt P28335); format: cell-based, HEK293
T1 sequence (P28335 whole entry): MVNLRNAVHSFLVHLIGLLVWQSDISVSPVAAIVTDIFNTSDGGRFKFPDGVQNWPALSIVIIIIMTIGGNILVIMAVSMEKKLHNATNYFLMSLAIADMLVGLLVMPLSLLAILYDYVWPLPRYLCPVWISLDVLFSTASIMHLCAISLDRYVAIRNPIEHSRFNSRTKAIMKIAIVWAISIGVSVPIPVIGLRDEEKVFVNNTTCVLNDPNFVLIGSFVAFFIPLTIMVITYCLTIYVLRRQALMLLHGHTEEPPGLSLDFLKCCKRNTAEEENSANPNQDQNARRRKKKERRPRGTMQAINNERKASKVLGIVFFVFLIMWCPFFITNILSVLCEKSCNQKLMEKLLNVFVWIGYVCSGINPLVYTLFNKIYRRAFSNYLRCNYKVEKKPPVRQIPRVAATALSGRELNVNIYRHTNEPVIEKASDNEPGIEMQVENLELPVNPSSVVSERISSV

[2] = Cmax in Sprague-Dawley rat at 10 mg/kg, po; format: ADME, organism-based; design: dose 10 mg/kg, route oral; details: in vivo
[3] = AUClast in Sprague-Dawley rat at 10 mg/kg, po; format: ADME, organism-based; design: time 0 - last, dose 10 mg/kg, route oral; details: plasma
[4] = Total clearance in Sprague-Dawley rat at 2 mg/kg, iv; format: ADME, organism-based; design: dose 2 mg/kg, route intravenous; details: in vivo
[5] = Drug level in Sprague-Dawley rat brain at 0.3 mg/kg, po after 0.75 hrs; format: ADME, organism-based; design: dose 0.3 mg/kg, route oral; details: read-out: Drug uptake
[6] = Drug level in Sprague-Dawley rat plasma at 0.3 mg/kg, po after 0.75 hrs; format: ADME, organism-based; design: dose 0.3 mg/kg, route oral; details: read-out: Drug uptake
[7] = Ratio of drug level in brain to plasma in Sprague-Dawley rat at 3 mg/kg, po after 0.75 hrs; format: ADME, organism-based; design: dose 3 mg/kg, route oral
[8] = Ratio of drug level in brain to plasma in Sprague-Dawley rat at 0.3 mg/kg, po after 0.75 hrs; format: ADME, organism-based; design: dose 0.3 mg/kg, route oral
Rattus norvegicus [9] = assay: Inhibition of DOI-induced hypolocomotion in Sprague-Dawley rat at 0.3 mg/kg, po administered 25 mins before DOI challenge measured after 10 mins; format: functional, organism-based; design: dose 0.3 mg/kg
Cytochrome P450 1A2 = biological target: T2, Cytochrome P450 1A2 (Homo sapiens, UniProt P05177); assay: Inhibition of CYP1A2 in human liver microsomes; format: ADME, Microsome
T2 sequence (P05177 whole entry): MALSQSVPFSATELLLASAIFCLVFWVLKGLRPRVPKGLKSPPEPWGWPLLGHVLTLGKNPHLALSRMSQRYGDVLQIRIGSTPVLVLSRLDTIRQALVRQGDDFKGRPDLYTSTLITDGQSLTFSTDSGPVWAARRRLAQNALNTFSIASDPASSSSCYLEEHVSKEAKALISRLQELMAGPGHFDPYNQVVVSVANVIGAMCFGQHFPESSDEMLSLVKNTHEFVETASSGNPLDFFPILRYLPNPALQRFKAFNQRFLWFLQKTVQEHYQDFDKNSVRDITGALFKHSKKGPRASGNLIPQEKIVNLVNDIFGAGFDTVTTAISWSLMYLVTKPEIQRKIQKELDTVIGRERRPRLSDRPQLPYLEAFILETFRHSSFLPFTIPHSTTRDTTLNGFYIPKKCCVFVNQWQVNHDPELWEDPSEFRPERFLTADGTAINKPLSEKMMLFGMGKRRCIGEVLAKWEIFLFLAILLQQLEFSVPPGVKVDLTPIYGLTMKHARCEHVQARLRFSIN

Cytochrome P450 2C9 = Cytochrome P450 2C9 (Homo sapiens, UniProt P11712); assay: Inhibition of CYP2C9 in human liver microsomes; format: ADME, Microsome
Cytochrome P450 2C19 = Cytochrome P450 2C19 (Homo sapiens, UniProt P33261); assay: Inhibition of CYP2C19 in human liver microsomes; format: ADME, Microsome
Cytochrome P450 2D6 = Cytochrome P450 2D6 (Homo sapiens, UniProt P10635); assay: Inhibition of CYP2D6 in human liver microsomes; format: ADME, Microsome
Cytochrome P450 3A4 = Cytochrome P450 3A4 (Homo sapiens, UniProt P08684); assay: Inhibition of CYP3A4 in human liver microsomes; format: ADME, Microsome
Rattus norvegicus [10] = assay: Effect on behavioral activity in Sprague-Dawley rat assessed as increase in deep sleep at 0.1 mg/kg, po after 1 hr; format: functional, organism-based; design: dose 0.1 mg/kg
Rattus norvegicus [11] = assay: Effect on behavioral activity in Sprague-Dawley rat assessed as increase in deep sleep at 0.1 mg/kg, po after 3 to 4 hrs; format: functional, organism-based; design: dose 0.1 mg/kg
Rattus norvegicus [12] = assay: Effect on behavioral activity in po dosed Sprague-Dawley rat assessed as increase in sleep consolidation after 5 hrs; format: functional, organism-based
[13] = biological target: 5-hydroxytryptamine receptor 2A (Macaca mulatta, UniProt P50128); assay: Binding affinity to monkey 5HT2A receptor
[14] = biological target: 5-hydroxytryptamine receptor 2A (Canis lupus familiaris, UniProt O46635); assay: Binding affinity to dog 5HT2A receptor
[15] = biological target: 5-hydroxytryptamine receptor 2A (Rattus norvegicus, UniProt P14842); assay: Binding affinity to rat 5HT2A receptor
[16] = Protein binding in dog plasma; format: ADME, cell-free, Canis lupus familiaris; details: read-out: PPB (converted)
[17] = Protein binding in rat plasma; format: ADME, cell-free; details: read-out: PPB (converted)
[18] = Cmax in mouse at 3 mg/kg, po; format: ADME, organism-based; design: dose 3 mg/kg, route oral; details: in vivo
[19] = AUClast in mouse at 3 mg/kg, po; format: ADME, organism-based; design: time 0 - last, dose 3 mg/kg, route oral; details: plasma
[20] = Half life in mouse at 3 mg/kg, po; format: ADME, organism-based; design: dose 3 mg/kg, route oral; details: in vivo
[21] = Total clearance in mouse at 2 mg/kg, iv; format: ADME, organism-based; design: dose 2 mg/kg, route intravenous; details: in vivo
Mus musculus [22] = assay: Volume of distribution at steady state in mouse at 3 mg/kg, po; format: ADME, organism-based; design: dose 3 mg/kg, route oral; details: in vivo
[23] = Oral bioavailability in mouse at 3 mg/kg relative to 2 mg/kg, iv dose; format: ADME, organism-based; details: in vivo
[24] = Half life in Sprague-Dawley rat at 3 mg/kg, po; format: ADME, organism-based; design: dose 3 mg/kg, route oral; details: in vivo
Rattus norvegicus [25] = assay: Volume of distribution at steady state in Sprague-Dawley rat at 3 mg/kg, po; format: ADME, organism-based; design: dose 3 mg/kg, route oral; details: in vivo
[26] = Oral bioavailability in Sprague-Dawley rat at 3 mg/kg relative to 2 mg/kg, iv dose; format: ADME, organism-based; details: in vivo
[27] = Cmax in dog at 3 mg/kg, po; format: ADME, organism-based, Canis lupus familiaris; design: dose 3 mg/kg, route oral; details: in vivo
[28] = AUClast in dog at 3 mg/kg, po; format: ADME, organism-based, Canis lupus familiaris; design: dose 3 mg/kg, route oral, time 0 - last; details: plasma
[29] = Half life in dog at 3 mg/kg, po; format: ADME, organism-based, Canis lupus familiaris; design: dose 3 mg/kg, route oral; details: in vivo
[30] = Total clearance in dog at 2 mg/kg, iv; format: ADME, organism-based, Canis lupus familiaris; design: dose 2 mg/kg, route intravenous; details: in vivo
Canis familiaris [31] = assay: Volume of distribution at steady state in dog at 3 mg/kg, po; format: ADME, organism-based, Canis lupus familiaris; design: dose 3 mg/kg, route oral; details: in vivo
[32] = Oral bioavailability in dog at 3 mg/kg relative to 2 mg/kg, iv dose; format: ADME, organism-based, Canis lupus familiaris; details: in vivo
[33] = Cmax in monkey at 3 mg/kg, po; format: ADME, organism-based, Macaca mulatta; design: dose 3 mg/kg, route oral; details: rhesus monkey, in vivo
[34] = AUClast in monkey at 3 mg/kg, po; format: ADME, organism-based, Macaca mulatta; design: time 0 - last, dose 3 mg/kg, route oral; details: rhesus monkey, plasma
[35] = Half life in monkey at 3 mg/kg, po; format: ADME, organism-based, Macaca mulatta; design: dose 3 mg/kg, route oral; details: rhesus monkey, in vivo
[36] = Total clearance in monkey at 2 mg/kg, iv; format: ADME, organism-based, Macaca mulatta; design: dose 2 mg/kg, route intravenous; details: rhesus monkey, in vivo
Rhesus monkey = assay: Volume of distribution at steady state in monkey at 3 mg/kg, po; format: ADME, organism-based, Macaca mulatta; design: dose 3 mg/kg, route oral; details: in vivo
[37] = Oral bioavailability in monkey at 3 mg/kg relative to 2 mg/kg, iv dose; format: ADME, organism-based, Macaca mulatta; details: rhesus monkey, in vivo
[38] = Toxicity in mouse assessed as maximum tolerated dose; format: organism-based; details: in vivo
[39] = Toxicity in rat assessed as maximum tolerated dose; format: organism-based; details: in vivo
Mus musculus [40] = assay: Toxicity in mouse assessed as reduction in locomotor activity at 300 mg/kg by rotarod test; format: organism-based; design: dose 300 mg/kg; details: in vivo
Rattus norvegicus [41] = assay: Toxicity in rat assessed as reduction in locomotor activity at 300 mg/kg by rotarod test; format: organism-based; design: dose 300 mg/kg; details: in vivo
Canis familiaris [42] = assay: Toxicity in telemeterized dog assessed as effect on hemodynamics at 10 to 30 mg/kg; format: organism-based, Canis lupus familiaris; design: dose 10-30 mg/kg; details: in vivo
Rattus norvegicus [43] = assay: Toxicity in telemeterized rats assessed as effect on hemodynamics at 10 to 30 mg/kg; format: organism-based; design: dose 10-30 mg/kg; details: in vivo
Canis familiaris [44] = assay: Cardiotoxicity in telemeterized dog assessed as change in ECG parameter at 10 to 30 mg/kg; format: toxicity, organism-based, Canis lupus familiaris; design: dose 10-30 mg/kg; details: in vivo
Rattus norvegicus [45] = assay: Cardiotoxicity in telemeterized rat assessed as change in ECG parameter at 10 to 30 mg/kg; format: toxicity, organism-based; design: dose 10-30 mg/kg; details: in vivo
[46] = biological target: Voltage-gated inwardly rectifying potassium channel KCNH2 (Homo sapiens, UniProt Q12809)
Description: Inhibition of human ERG by patch clamp electrophysiology assay

[47] = biological target: 5-hydroxytryptamine receptor 2A (Homo sapiens, UniProt P28223); assay: biochemical
Sequence of 5-hydroxytryptamine receptor 2A (Homo sapiens, UniProt P28223) (P28223 whole entry): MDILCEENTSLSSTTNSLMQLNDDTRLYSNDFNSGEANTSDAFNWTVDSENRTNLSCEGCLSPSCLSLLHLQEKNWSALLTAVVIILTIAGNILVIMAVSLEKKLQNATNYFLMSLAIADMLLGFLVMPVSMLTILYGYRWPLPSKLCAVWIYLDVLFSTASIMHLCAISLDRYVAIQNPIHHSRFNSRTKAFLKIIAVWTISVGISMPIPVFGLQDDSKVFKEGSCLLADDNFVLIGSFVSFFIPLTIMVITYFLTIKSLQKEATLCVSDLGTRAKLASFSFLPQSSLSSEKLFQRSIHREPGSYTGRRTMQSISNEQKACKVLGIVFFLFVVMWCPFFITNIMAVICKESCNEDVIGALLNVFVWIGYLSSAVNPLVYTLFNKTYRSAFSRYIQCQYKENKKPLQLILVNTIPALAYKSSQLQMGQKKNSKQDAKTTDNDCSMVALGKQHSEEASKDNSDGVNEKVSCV
Description: Displacement of [125I]DOI from human recombinant 5HT2A receptor expressed in HEK293 cells after 1 hr by scintillation counting

Sequence of 5-hydroxytryptamine receptor 2A (Macaca mulatta, UniProt P50128) (P50128 whole entry): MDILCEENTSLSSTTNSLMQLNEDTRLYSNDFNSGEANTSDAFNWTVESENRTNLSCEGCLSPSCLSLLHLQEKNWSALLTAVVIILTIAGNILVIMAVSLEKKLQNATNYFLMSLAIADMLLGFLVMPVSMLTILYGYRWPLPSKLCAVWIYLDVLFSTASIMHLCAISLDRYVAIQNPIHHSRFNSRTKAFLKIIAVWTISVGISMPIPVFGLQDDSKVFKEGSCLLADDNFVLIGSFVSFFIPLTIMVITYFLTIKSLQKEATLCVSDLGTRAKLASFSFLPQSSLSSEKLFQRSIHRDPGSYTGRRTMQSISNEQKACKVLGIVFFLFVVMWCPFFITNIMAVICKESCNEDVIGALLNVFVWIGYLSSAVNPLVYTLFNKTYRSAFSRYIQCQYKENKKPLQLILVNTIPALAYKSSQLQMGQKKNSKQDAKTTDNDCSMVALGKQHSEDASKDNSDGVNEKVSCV
Sequence of Cytochrome P450 2D6 (P10635 whole entry): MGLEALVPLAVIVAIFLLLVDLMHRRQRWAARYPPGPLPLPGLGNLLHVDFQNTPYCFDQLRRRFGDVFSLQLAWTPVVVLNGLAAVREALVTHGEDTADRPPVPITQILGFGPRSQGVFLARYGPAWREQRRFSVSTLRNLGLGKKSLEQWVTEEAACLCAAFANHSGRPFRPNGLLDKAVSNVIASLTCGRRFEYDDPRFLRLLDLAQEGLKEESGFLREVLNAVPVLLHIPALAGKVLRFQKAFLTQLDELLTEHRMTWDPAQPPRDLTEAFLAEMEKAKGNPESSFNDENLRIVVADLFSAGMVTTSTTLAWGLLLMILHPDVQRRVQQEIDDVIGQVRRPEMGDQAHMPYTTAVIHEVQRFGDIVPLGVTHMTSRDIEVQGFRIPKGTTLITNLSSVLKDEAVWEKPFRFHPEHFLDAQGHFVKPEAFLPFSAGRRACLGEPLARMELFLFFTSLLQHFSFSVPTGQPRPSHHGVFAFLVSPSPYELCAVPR
Sequence of 5-hydroxytryptamine receptor 2A (Canis lupus familiaris, UniProt O46635) (O46635 whole entry): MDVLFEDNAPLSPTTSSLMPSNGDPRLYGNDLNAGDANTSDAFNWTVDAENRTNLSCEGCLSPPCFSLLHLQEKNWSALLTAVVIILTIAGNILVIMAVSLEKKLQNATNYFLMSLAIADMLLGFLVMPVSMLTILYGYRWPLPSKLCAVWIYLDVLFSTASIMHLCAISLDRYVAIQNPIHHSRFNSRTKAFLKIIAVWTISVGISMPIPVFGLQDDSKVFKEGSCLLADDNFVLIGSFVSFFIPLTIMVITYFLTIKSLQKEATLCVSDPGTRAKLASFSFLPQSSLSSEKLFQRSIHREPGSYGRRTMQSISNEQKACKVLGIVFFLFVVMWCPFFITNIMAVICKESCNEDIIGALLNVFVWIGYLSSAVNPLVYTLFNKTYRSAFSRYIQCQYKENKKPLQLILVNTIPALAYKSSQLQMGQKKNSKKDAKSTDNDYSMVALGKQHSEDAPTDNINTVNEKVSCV
Sequence of 5-hydroxytryptamine receptor 2A (Rattus norvegicus, UniProt P14842) (P14842 whole entry): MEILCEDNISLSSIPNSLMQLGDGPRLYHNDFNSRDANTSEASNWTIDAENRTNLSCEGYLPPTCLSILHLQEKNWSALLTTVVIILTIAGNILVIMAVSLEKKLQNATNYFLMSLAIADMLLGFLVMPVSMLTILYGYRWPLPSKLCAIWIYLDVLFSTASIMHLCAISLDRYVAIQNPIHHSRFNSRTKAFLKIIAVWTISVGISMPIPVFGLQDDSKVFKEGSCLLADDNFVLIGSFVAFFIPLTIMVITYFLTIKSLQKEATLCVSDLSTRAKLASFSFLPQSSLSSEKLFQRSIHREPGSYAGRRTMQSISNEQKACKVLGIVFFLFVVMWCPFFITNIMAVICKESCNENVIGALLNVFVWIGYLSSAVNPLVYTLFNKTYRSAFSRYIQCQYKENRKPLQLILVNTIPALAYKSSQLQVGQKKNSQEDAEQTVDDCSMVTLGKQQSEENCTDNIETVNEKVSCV
Sequence of Cytochrome P450 3A4 (P08684 whole entry): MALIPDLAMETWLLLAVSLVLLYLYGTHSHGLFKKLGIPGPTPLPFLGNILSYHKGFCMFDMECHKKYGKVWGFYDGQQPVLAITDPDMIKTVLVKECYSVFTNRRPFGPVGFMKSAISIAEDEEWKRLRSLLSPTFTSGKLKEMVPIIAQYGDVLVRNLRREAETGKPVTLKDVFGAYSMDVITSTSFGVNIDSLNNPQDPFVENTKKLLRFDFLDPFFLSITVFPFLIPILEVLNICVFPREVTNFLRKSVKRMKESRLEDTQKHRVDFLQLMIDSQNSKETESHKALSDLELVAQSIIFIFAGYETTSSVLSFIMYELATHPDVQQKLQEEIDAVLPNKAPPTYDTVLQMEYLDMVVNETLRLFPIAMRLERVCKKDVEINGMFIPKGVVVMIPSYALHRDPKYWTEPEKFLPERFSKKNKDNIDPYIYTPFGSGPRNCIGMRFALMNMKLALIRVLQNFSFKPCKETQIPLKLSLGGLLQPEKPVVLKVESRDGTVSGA
Sequence of Cytochrome P450 2C9 (P11712 whole entry): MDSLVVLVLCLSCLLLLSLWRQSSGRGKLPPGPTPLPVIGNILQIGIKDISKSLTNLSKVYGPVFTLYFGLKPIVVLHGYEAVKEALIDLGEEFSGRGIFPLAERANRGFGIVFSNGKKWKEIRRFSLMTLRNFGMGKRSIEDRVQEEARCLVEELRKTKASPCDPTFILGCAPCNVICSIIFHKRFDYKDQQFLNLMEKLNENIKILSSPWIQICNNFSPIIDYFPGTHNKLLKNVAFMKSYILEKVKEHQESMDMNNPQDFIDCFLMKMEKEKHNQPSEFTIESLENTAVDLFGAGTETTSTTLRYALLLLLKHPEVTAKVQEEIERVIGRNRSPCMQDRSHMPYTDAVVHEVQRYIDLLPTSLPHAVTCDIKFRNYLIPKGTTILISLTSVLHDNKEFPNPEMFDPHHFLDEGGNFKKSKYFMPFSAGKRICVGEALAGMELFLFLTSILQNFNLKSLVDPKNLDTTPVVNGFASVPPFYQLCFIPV
Sequence of Cytochrome P450 2C19 (P33261 whole entry): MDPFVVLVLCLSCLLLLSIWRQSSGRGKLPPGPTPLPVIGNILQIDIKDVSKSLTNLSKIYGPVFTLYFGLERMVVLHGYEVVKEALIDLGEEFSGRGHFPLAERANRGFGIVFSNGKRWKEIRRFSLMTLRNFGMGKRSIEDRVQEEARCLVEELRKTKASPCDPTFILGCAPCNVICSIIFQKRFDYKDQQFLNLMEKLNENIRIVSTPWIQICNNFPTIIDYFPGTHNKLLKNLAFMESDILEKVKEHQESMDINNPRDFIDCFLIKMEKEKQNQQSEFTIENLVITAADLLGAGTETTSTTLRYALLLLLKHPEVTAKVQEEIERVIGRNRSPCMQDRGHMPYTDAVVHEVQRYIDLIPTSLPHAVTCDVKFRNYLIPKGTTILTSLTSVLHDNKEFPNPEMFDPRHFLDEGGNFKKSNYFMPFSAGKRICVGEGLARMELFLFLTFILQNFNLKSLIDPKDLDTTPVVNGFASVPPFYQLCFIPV
Sequence of Voltage-gated inwardly rectifying potassium channel KCNH2 (Q12809 whole entry): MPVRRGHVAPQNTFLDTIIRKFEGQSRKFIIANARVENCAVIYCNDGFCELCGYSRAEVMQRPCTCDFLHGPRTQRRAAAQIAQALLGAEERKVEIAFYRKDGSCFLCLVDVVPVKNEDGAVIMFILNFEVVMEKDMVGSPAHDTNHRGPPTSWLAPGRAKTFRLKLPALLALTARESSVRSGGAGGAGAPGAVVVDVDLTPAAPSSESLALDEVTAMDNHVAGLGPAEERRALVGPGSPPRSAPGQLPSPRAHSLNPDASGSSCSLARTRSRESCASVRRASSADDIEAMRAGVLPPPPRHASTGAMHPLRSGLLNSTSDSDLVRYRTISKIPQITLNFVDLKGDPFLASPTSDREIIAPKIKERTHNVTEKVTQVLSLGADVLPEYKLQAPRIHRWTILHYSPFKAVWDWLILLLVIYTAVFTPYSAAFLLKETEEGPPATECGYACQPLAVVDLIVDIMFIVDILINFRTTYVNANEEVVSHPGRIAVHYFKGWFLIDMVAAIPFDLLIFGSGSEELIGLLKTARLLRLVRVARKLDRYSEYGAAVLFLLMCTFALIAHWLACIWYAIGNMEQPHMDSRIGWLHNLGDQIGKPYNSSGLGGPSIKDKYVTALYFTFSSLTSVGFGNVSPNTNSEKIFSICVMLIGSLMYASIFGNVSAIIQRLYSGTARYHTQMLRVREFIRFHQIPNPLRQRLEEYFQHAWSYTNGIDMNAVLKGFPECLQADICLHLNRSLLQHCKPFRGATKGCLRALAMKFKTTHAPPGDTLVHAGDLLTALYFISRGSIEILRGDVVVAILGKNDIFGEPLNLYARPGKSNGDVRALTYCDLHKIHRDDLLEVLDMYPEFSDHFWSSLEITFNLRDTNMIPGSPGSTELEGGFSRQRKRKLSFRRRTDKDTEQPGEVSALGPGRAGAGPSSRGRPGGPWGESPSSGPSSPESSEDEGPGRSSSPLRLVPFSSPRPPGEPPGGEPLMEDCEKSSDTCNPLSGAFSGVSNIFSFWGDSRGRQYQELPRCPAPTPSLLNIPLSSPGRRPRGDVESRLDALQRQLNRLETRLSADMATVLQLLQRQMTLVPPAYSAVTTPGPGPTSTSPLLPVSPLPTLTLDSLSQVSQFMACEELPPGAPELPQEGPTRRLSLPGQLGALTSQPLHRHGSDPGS

## Cn1cc(Cl)c(C(=O)N2CCN(CC(=O)c3ccc(F)cc3)CC2)n1
[1]
  Ki: 1410 nM
[2]
  Cmax: 1040 ng/mL
[3]
  AUC(0-t): 1180 ng·h/mL
[4]
  clearance: 93.3 mL/min/kg
[5]
  concentration at 0.75 h: 23.3 ng/mL
[6]
  concentration at 0.75 h: 19.6 ng/mL
[7]
  Kp at 0.75 h: 1.18
[8]
  Kp at 0.75 h: 1.18
Rattus norvegicus [9]
  inhibition: Active
Cytochrome P450 1A2
  inhibition (INH): Not Active
Cytochrome P450 2C9
  inhibition (INH): Not Active
Cytochrome P450 2C19
  inhibition (INH): Not Active
Cytochrome P450 2D6
  inhibition (INH): Not Active
Cytochrome P450 3A4
  inhibition (INH): Not Active
Rattus norvegicus [10]
  Activity: Active
Rattus norvegicus [11]
  Activity: Active
Rattus norvegicus [12]
  Activity: Dose-dependent effect
[13]
  Ki: 1.7 nM
[14]
  Ki: 2.7 nM
[15]
  Ki: 2.4 nM
[16]
  fraction unbound: 0.39
[17]
  fraction unbound: 0.49
[18]
  Cmax: 718 ng/mL
[19]
  AUC(0-t): 459 ng·h/mL
[20]
  half-life: 0.5 h
[21]
  clearance: 93.3 mL/min/kg
Mus musculus [22]
  Vdss: 1.7 L/kg
[23]
  bioavailability: 87%
[24]
  half-life: 2 h
Rattus norvegicus [25]
  Vdss: 1.7 L/kg
[26]
  bioavailability: 67%
[27]
  Cmax: 1260 ng/mL
[28]
  AUC(0-t): 2940 ng·h/mL
[29]
  half-life: 5.2 h
[30]
  clearance: 15 mL/min/kg
Canis familiaris [31]
  Vdss: 1.9 L/kg
[32]
  bioavailability: 94%
[33]
  Cmax: 600 ng/mL
[34]
  AUC(0-t): 872 ng·h/mL
[35]
  half-life: 0.6 h
[36]
  clearance: 15 mL/min/kg
Rhesus monkey
  Vdss: 0.4 L/kg
[37]
  bioavailability: 26%
[38]
  MTD: 300 mg/kg
[39]
  MTD: 300 mg/kg
Mus musculus [40]
  Activity: Toxic
Rattus norvegicus [41]
  Activity: Toxic
Canis familiaris [42]
  Activity: Non-toxic
Rattus norvegicus [43]
  Activity: Non-toxic
Canis familiaris [44]
  Activity: Non-toxic
Rattus norvegicus [45]
  Activity: Non-toxic
[46]
  IC50: 30000 nM
[47]
  Ki: 3.7 nM
